Test: Protection against Bacillus anthracis lethal toxin-mediated cytotoxicity in mouse RAW264.7 cells assessed as change in viability after 24 hrs by WST1 dye reduction assay

| SMILES | IC50 [µM] |
| --- | --- |
| CC(C)COC[C@H](CN(Cc1ccccc1)c1ccccc1)N1CCCC1 | 4.8 |
| CN(C)CCCn1cc(C2=C(c3c[nH]c4ccccc34)C(=O)NC2=O)c2ccccc21 [2-[1-(3-dimethylaminopropyl)-indol-3-yl]-3-(indol-3-yl)maleimide] | 1.5 |
| CCCCCCCCCCCCC/C=C/[C@@H](O)[C@H](CO)N(C)C [(E)-(2S,3R)-2-Dimethylamino-octadec-4-ene-1,3-diol] | 2.3 |
